Key:
IL-31 = assay: Phase 2 CSU study: serum IL-31 HTRF assay; format: in vivo, human; settings: for IL-31 (ng/mL) Median Percent Change from Baseline: Baseline to Week 12
Text: Blood samples were also collected through Week 12 to evaluate the change in baseline in various biomarkers, including sMRGPRX2, IgG anti-TPO, IgG anti-FCεRI, IgG anti-IgE, and IL-31.
Collection of biological samples for other biomarker research was also part of this study. The following samples for biomarker research were required and were to be collected from all participants in this study: • Serum and plasma samples for soluble biomarkers and cellular tests. Analytes included IgG anti-IgE, IgG anti-FcεRI, IgG anti-TPO, IgE anti-TPO, IL-31, and sMRGPRX2. • Blood samples for immune cell phenotyping, including measurement of eosinophil levels • Blood samples for BTK occupancy in peripheral blood mononuclear cells (PBMCs) at selected sites
For each patient, serum samples were to be collected on each of four visits (Visits 2, 4, 6, and end of study/follow up).
Serum analyte testing was to be performed using the following commercial assays: • sMRGPRX2 ELISA (Cat. No. #MBS933336; MyBioSource) • IL-31 HTRF assay (Cat. No. #62HIL31PEG; Cisbio/PerkinElmer) • IgG anti-TPO ELISA (Cat. No. #ORG503; Orgentec Diagnostica GmbH)
If dilutions were to be prepared, the same dilutions were to be prepared twice from each sample. These were to be measured on different plates. Each plate was to include a standard curve. Samples were to be measured twice for all biomarkers except for sMRGPRX2. Mean measurement values were to be calculated, and the concentration of the biomarker was to be calculated using GraphPad Prism 9 software (4-PL model).
The IL-31 HTRF assay was performed according to the manufacturer's instructions.
Assay data ranges are described below. • sMRGPRX2: 0.1 ng/mL-10 ng/mL • IgG anti-FCεRI: 0-10000 arbitrary units (AU) • IgG anti-TPO: 0-3000 international units (IU) • IgE anti-TPO: 0-500 AU • IgG anti-IgE: 0-100000 AU • IL-31: 0.1 ng/mL-20 ng/mL

total serum IgE or IgG = assay: Phase 2 CSU study: total serum immunoglobulins (IgE, IgG, IgM); settings: for Total IgE (IU/mL) Median Percent Change from Baseline / Total IgG (g/L) Median Percent Change from Baseline: Baseline to Week 12
Description: Changes in disease-relevant biomarkers were assessed over the course of the 12-Week double-blind phase (see FIG. 40). Biomarkers included sMRGPRX2, IgE anti-TPO, IgG anti-FCεRI, IL-31, IgM, IgE, IgG, IgG anti-IgE, and white blood cell levels.

SMILES: CC(C)(C=C(C#N)C(=O)N1CCC[C@@H](n2nc(-c3ccc(Oc4ccccc4)cc3F)c3c(N)ncnc32)C1)N1CCN(C2COC2)CC1 [rilzabrutinib, (R)-2-[3-[4-amino-3-(2-fluoro-4-phenoxy-phenyl)pyrazolo[3,4-d]pyrimidin-1-yl]piperidine-1-carbonyl]-4-methyl-4-[4-(oxetan-3-yl)piperazin-1-yl]pent-2-enenitrile]
- reduction from baseline median IL-31 levels (IL-31; 400 mg TID, Week 12): 8.1%
- IL-31 (ng/mL) Median Percent Change from Baseline (IL-31; 400 mg BID): −6.8%
- IL-31 (ng/mL) Median Percent Change from Baseline (IL-31; 400 mg QPM): −11.6%
- IL-31 (ng/mL) Median Percent Change from Baseline (IL-31; 400 mg TID): −8.1%
- change in total serum IgE or IgG levels (total serum IgE or IgG; 12-week double-blind phase): not associated with a change
- Total IgE (IU/mL) Median Percent Change from Baseline (total serum IgE or IgG; 400 mg BID): 3.9%
- Total IgG (g/L) Median Percent Change from Baseline (total serum IgE or IgG; 400 mg BID): 0.96%
- Total IgE (IU/mL) Median Percent Change from Baseline (total serum IgE or IgG; 400 mg QPM): 3.4%
- Total IgG (g/L) Median Percent Change from Baseline (total serum IgE or IgG; 400 mg QPM): −1.99%
- Total IgE (IU/mL) Median Percent Change from Baseline (total serum IgE or IgG; 400 mg TID): 4.1%
- Total IgG (g/L) Median Percent Change from Baseline (total serum IgE or IgG; 400 mg TID): 0.24%
